Test: Mouse pharmacokinetics, single p.o. dose
Format: in vivo
Details: mice
Method: Pharmacokinetic studies were performed with male ICR mice (8 weeks old, 30~35 g) purchased from Koatech Co. (Kyunggi, Korea) as reported previously. Test compounds were dissolved at 1 mg/mL in DMA/Tween 80/20% aqueous HPβCD (10/10/80 vol%) to prepare the dosing solutions. SH-11037 was administered by oral (p.o.) gavage at a dose of 10 mg/kg and a dose volume of 10 mL/kg (equimolar to 6 mg/kg of SH-11008) or intravenously (i.v.) via tail vein injection at a dose of 5 mg/kg and a dose volume of 5 mL/kg (equimolar to 3 mg/kg of SH-11008), respectively. […] Plasma samples were analyzed as described below in Section 2.6.1.
Calibration standards and quality control (QC) samples were prepared by spiking 15 μL of blank plasma with 5 μL of analyte working solution prepared in 50 vol% aqueous CH3CN. […] The lower limit of quantitation of SH-11037 and SH-11008 were 0.24 and 0.48 ng/mL, respectively, with a signal-to-noise ratio based on root mean square noise > 10. […] The precision and accuracy of the analytical method were evaluated with the QC samples prepared in triplicate at 5, 250, and 400 ng/mL for both of SH-11037 and SH-11008: the coefficient of variation (%CV) and the relative error (%RE) were in the ranges of −21.23~5.72% and 1.47~12.30% for SH-11037 and −22.85~4.96% and 1.2~13.8% for SH-11008, respectively. […]

| Structure (SMILES) | plasma level of SH-11037 (throughout the time course after single p.o. dose of SH-11037 10 mg/kg) | plasma levels of SH-11008 (after single p.o. dose of SH-11008 6 mg/kg, BQL) [ng/mL] |
| --- | --- | --- |
| COc1ccc(CC2COc3cc(OC)c(OC)c(OC)c3C2=O)cc1OC(=O)[C@H](Cc1ccccc1)NC(=O)OC(C)(C)C (some centres unmarked) [SH-11037] | BQL | – |
| COc1ccc(CC2COc3cc(OC)c(OC)c(OC)c3C2=O)cc1O (centres unmarked) [SH-11008] | – | < 0.48 |

From PMC9697349, “Mouse Pharmacokinetics and In Vitro Metabolism of SH-11037 and SH-11008, Synthetic Homoisoflavonoids for Retinal Neovascularization” (Pharmaceutics, 2022)
